Test results reported in ChEMBL document CHEMBL4765241, “Identification and Preclinical Pharmacology of ((1 R,3 S)-1-Amino-3-(( S)-6-(2-methoxyphenethyl)-5,6,7,8-tetrahydronaphthalen-2-yl)cyclopentyl)methanol (BMS-986166): A Differentiated Sphingosine-1-phosphate Receptor 1 (S1P) Modulator Advanced into Clinical Trials” (J Med Chem, 2019).
Calls of active or inactive are those of the source. The rule behind the calls is not given here.

Columns and labels:
[1] = Protein binding in human assessed as bound fraction; assay type: ADME; details: read-out: PB
[2] = Metabolic stability in dog liver microsomes assessed as half-life measured upto 120 mins in presence of NADPH-generating system by LC/MS/MS analysis; assay type: ADME, Canis lupus familiaris, Microsome
[3] = Oral bioavailability in cynomolgus monkey at 1 mg/kg; assay type: ADME, organism-based, Macaca fascicularis; details: in vivo
[4] = AUC ratio in orally dosed Sprague-Dawley rat blood assessed as phosphate metabolite to parent compound; assay type: ADME, organism-based; details: in vivo, po
[5] = Distribution coefficient, log D of compound at pH 6.5; assay type: physicochemical; details: octanol/water
Cytochrome P450 2C19 = Cytochrome P450 2C19 (Homo sapiens, UniProt P33261); assay: Inhibition of CYP2C19 (unknown origin); assay type: ADME
Sequence of Cytochrome P450 2C19 (P33261 whole entry): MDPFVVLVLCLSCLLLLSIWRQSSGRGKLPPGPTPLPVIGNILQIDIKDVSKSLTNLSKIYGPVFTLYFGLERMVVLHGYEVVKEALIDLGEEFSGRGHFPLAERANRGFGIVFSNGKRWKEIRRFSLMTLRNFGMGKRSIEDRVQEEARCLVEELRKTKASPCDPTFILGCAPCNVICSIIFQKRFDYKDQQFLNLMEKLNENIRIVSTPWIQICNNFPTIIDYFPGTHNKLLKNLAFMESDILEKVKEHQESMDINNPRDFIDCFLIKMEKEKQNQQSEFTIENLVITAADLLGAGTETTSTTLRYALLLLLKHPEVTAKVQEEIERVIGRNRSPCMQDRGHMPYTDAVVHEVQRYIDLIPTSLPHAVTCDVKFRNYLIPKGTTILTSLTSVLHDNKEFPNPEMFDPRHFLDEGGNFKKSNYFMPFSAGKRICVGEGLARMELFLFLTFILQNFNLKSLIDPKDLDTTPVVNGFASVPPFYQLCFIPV

[6] = Ratio of drug metabolism in Lewis rat blood assessed as phosphate ester metabolite to parent drug at 2 mg/kg, po measured at 24 hrs by LC-MS/MS analysis; assay type: ADME, organism-based; details: in vivo
[7] = Protein binding in rat assessed as bound fraction; assay type: ADME; details: read-out: PB
Rattus norvegicus [8] = assay: Reduction in circulating lymphocytes in Lewis rat blood assessed as effective dose after oral dosing measured at 24 hrs by hematology analyzer based analysis; assay type: functional
Mus musculus [9] = assay: Antiarthritic activity in DBA/1 mouse model of collagen-induced arthritis assessed as reduction in clinical score administered orally once daily as single dose for 21 days; assay type: functional, organism-based; details: time 21.0 day
Mus musculus [10] = assay: Antiarthritic activity in DBA/1 mouse model of collagen-induced arthritis assessed as reduction in paw histological score at 0.5 mg/kg, po QD administered as single dose for 21 days; assay type: functional; design: scale not given: the % may be the effect or the level left; details: time 21 day
[11] = Tmax in cynomolgus monkey at 1 mg/kg, po or 1 mg/kg, iv; assay type: ADME, organism-based, Macaca fascicularis; details: in vivo
[12] = Clearance in Beagle dog at 1 mg/kg, iv; assay type: ADME, organism-based, Canis lupus familiaris; details: in vivo
Mus musculus [13] = assay: Antiarthritic activity in DBA/1 mouse model of collagen-induced arthritis assessed as reduction in paw histological score administered orally once daily as single dose for 21 days; assay type: functional, organism-based; details: time 21.0 day
[14] = Oral bioavailability in beagle dog at 0.3 mg/kg; assay type: ADME, organism-based, Canis lupus familiaris; details: in vivo
Mus musculus [15] = assay: Immunosuppressive activity in MOG (35 to 55 residues)/pertussis toxin-induced experimental autoimmune encephalomyelitis C57BL/6 mouse model assessed as maximum efficacy causing reduction in EAE spinal cord clinical score administered orally once daily starting from day 1 post immunization and measured thrice weekly until day 24; assay type: functional
[16] = Volume of distribution at steady state in cynomolgus monkey at 1 mg/kg, po or 1 mg/kg, iv; assay type: ADME, organism-based, Macaca fascicularis; details: in vivo, read-out: Vdss
[17] = Tmax in Beagle dog at 0.3 mg/kg, po or 1 mg/kg, iv; assay type: ADME, organism-based, Canis lupus familiaris; details: in vivo
[18] = Metabolic stability in rat liver microsomes assessed as half-life measured upto 120 mins in presence of NADPH-generating system by LC/MS/MS analysis; assay type: ADME, Microsome
[19] = Oral bioavailability in Sprague-Dawley rat at 1 mg/kg; assay type: ADME, organism-based; details: in vivo
[20] = Drug metabolism in Lewis rat blood assessed as concentration of parent compound at 2 mg/kg, po measured at 4 hrs by LC-MS/MS analysis; assay type: ADME, organism-based; details: read-out: Ct
[21] = Drug metabolism in Lewis rat blood assessed as concentration of parent compound at 2 mg/kg, po measured at 24 hrs by LC-MS/MS analysis; assay type: ADME, organism-based; details: read-out: Ct
[22] = Terminal half-life in Sprague-Dawley rat at 1 mg/kg, iv; assay type: ADME, organism-based; details: in vivo, read-out: beta t1/2 (converted)
Rattus norvegicus [23] = assay: Reduction in circulating lymphocytes in Lewis rat blood at 2 mg/kg, po measured at 24 hrs by hematology analyzer based analysis; assay type: functional; design: scale not given: the % may be the effect or the level left
[24] = Protein binding in dog assessed as bound fraction; assay type: ADME, Canis lupus familiaris; details: read-out: PB
Mus musculus [25] = assay: Antiarthritic activity in DBA/1 mouse model of collagen-induced arthritis assessed as reduction in paw histological score at 0.1 mg/kg, po QD administered as single dose for 21 days; assay type: functional; design: scale not given: the % may be the effect or the level left; details: time 21 day
Mus musculus [26] = assay: Antiarthritic activity in DBA/1 mouse model of collagen-induced arthritis assessed as maximum efficacy causing reduction in paw histological score administered orally once daily as single dose for 21 days; assay type: functional; details: time 21 day
[27] = Genotoxicity in bacteria by Ames test; assay type: toxicity
[28] = Metabolic stability in cynomolgus monkey liver microsomes assessed as half-life; assay type: ADME, Macaca fascicularis, Microsome
[29] = Terminal half-life in cynomolgus monkey at 1 mg/kg, iv; assay type: ADME, organism-based, Macaca fascicularis; details: in vivo, read-out: beta t1/2 (converted)
Cytochrome P450 2C8 = target: T1, Cytochrome P450 2C8 (Homo sapiens, UniProt P10632); assay: Inhibition of CYP2C8 (unknown origin); assay type: ADME
T1 sequence (P10632 whole entry): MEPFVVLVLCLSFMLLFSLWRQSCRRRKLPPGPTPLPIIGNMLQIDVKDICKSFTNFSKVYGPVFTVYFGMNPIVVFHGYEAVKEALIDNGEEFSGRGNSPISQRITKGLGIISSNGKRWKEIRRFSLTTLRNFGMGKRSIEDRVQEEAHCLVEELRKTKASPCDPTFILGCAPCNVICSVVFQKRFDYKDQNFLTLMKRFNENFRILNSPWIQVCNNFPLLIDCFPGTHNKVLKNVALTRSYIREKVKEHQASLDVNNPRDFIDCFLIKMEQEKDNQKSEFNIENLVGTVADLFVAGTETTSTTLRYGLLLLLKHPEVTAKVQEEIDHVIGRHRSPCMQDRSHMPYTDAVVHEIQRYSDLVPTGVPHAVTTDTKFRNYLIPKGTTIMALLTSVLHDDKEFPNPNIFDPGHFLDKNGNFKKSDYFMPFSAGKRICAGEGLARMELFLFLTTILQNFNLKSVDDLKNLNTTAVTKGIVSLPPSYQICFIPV

[30] = Protein binding in mouse assessed as bound fraction; assay type: ADME; details: read-out: PB
[31] = Half-life in Lewis rat at 2 mg/kg, po measured over 72 hrs by LC-MS/MS analysis; assay type: ADME, organism-based; details: in vivo
[32] = AUC ratio in orally dosed cynomolgus monkey blood assessed as phosphate metabolite to parent compound; assay type: ADME, organism-based, Macaca fascicularis; details: in vivo, po
Cytochrome P450 3A4 = Cytochrome P450 3A4 (Homo sapiens, UniProt P08684); assay: Inhibition of CYP3A4 (unknown origin); assay type: ADME
Sequence of Cytochrome P450 3A4 (P08684 whole entry): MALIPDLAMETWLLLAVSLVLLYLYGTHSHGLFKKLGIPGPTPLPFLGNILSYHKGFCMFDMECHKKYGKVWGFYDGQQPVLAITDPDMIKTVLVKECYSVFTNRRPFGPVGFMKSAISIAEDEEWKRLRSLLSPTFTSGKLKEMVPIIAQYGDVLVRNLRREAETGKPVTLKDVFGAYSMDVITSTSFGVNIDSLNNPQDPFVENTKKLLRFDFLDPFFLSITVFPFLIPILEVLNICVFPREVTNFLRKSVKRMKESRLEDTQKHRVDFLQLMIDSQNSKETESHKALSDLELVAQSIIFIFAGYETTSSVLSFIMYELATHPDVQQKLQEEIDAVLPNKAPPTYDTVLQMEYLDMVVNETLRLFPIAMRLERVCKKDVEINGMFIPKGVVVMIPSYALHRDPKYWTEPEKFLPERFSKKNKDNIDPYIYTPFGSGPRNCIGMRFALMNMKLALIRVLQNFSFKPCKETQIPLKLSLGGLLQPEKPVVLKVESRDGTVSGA

[33] = Tmax in Sprague-Dawley rat at 1 mg/kg, po or 1 mg/kg, iv; assay type: ADME, organism-based; details: in vivo
[34] = Dissociation constant, pKa of compound; assay type: physicochemical
[35] = Pulmonary toxicity in Lewis rat assessed as elevation of BAL protein level at 3 mg/kg by advia1800 chemistry analyzer; assay type: organism-based; details: in vivo
[36] = Clearance in Sprague-Dawley rat at 1 mg/kg, iv; assay type: ADME, organism-based; details: in vivo
Mus musculus [37] = assay: Immunosuppressive activity in MOG (35 to 55 residues)/pertussis toxin-induced experimental autoimmune encephalomyelitis C57BL/6 mouse model assessed as reduction in EAE clinical scores at 0.1 to 0.5 mg/kg, po QD starting from day 1 post immunization and observed at day 12 until day 24 relative to control; assay type: functional, organism-based; details: dose 0.1-0.5 mg/kg
Rattus norvegicus [38] = assay: Reduction in circulating lymphocytes in Lewis rat blood at 2 mg/kg, po measured at 4 hrs by hematology analyzer based analysis; assay type: functional; design: scale not given: the % may be the effect or the level left

Q: For `COc1ccccc1CC[C@@H]1CCc2cc([C@H]3CC[C@](N)(CO)C3)ccc2C1` [UDIFITIMOD], which fraction unbound [1] is on record?
A: < 0.001

Q: And the half-life [2]?
A: 6.2 h

Q: What about the bioavailability [3] of the same compound?
A: 76%

Q: And the “Ratio AUC” value [4]?
A: 5.2

Q: And the logD [5]?
A: 5.05

Q: And the IC50 (Cytochrome P450 2C19)?
A: 6.9 µM

Q: And the Ratio [6]?
A: 5

Q: What about the fraction unbound [7] of the same compound?
A: < 0.001

Q: And the ED50 (Rattus norvegicus [8])?
A: 0.1 mg/kg

Q: And the Activity (Mus musculus [9])?
A: Active

Q: And the Activity (Mus musculus [10])?
A: 92%

Q: What about the Tmax [11] of the same compound?
A: 6 h

Q: What about the clearance [12] of the same compound?
A: 1.9 mL/min/kg

Q: And the Activity (Mus musculus [13])?
A: Active

Q: And the bioavailability [14]?
A: 61%

Q: And the Emax (Mus musculus [15])?
A: 0.5 mg/kg/day

Q: What about the Vd [16] of the same compound?
A: 10 L/kg

Q: What about the Tmax [17] of the same compound?
A: 6 h

Q: What about the half-life [18] of the same compound?
A: 1.62 h

Q: And the bioavailability [19]?
A: 23%

Q: What about the concentration at 4 h [20] of the same compound?
A: 40 nM

Q: And the concentration at 24 h [21]?
A: 30 nM

Q: And the half-life [22]?
A: 38 h

Q: And the Activity (Rattus norvegicus [23])?
A: 81%

Q: What about the fraction unbound [24] of the same compound?
A: < 0.001

Q: And the Activity (Mus musculus [25])?
A: 41%

Q: And the Emax (Mus musculus [26])?
A: 0.5 mg/kg/day

Q: And the Activity [27]?
A: Non-Toxic

Q: What about the half-life [28] of the same compound?
A: 1.83 h

Q: What about the half-life [29] of the same compound?
A: 46 h

Q: And the IC50 (Cytochrome P450 2C8)?
A: 8.6 µM

Q: What about the fraction unbound [30] of the same compound?
A: < 0.001

Q: And the half-life [31]?
A: 27 h

Q: And the “Ratio AUC” value [32]?
A: 1

Q: And the IC50 (Cytochrome P450 3A4)?
A: 5.5 µM

Q: What about the Tmax [33] of the same compound?
A: 6 h

Q: And the pKa [34]?
A: 9.5

Q: And the Activity [35]?
A: 8.8 mg/dL

Q: And the clearance [36]?
A: 9.7 mL/min/kg

Q: And the Activity (Mus musculus [37])?
A: Active

Q: What about the Activity (Rattus norvegicus [38]) of the same compound?
A: 76%
